One data set relates to HT-29. As to the kind of experiment: Antiproliferative activity against human HT-29 cells incubated for 48 to 96 hrs by MTT assay. The class given is functional, cell-based. (Tetrazolium assays rely on reduction of a dye to a coloured formazan, in cell work by metabolically active cells.)
The subject of a further data set is 786-0. The data set can be described thus: Antiproliferative activity against human 786-0 cells incubated for 48 to 96 hrs by MTT assay. Format: functional, cell-based.
Another data set relates to SK-BR-3. As to the kind of experiment: Growth inhibition of human SK-BR-3 cells incubated for 72 hrs by CellTiter-Glo luminescent assay. Format: functional.
Data set [1] in a line: Cytotoxicity against human L540cy cells assessed as reduction in cell growth incubated for 4 days by CellTiter-Glo luminescent assay. The class given is functional, cell-based. Conditions: 96 h. (In general: In ATP-based viability assays light output follows the ATP content of the culture.)
The test system of another data set is K562. As to the kind of experiment: Antiproliferative activity against human K562 cells assessed as inhibition of cell growth incubated for 5 days by WST-1 assay. The class given is functional, cell-based. Conditions: K562, 120 h.
The subject of another data set is KB 3-1. As to the kind of experiment: Cytotoxicity against human KB 3-1 cells assessed as inhibition of cell growth incubated for 3 days by SRB assay. Format: functional, cell-based. Conditions: KB 3-1, 72 h. A general note: Sulforhodamine B stains cellular protein and so reports cell mass.
In a further data set the test system is HCT-116. The data set can be described thus: Cytotoxicity against human HCT-116 cells incubated for 96 hrs by resazurin dye based fluorescence spectrometric assay. Format: functional, cell-based. Conditions: HCT-116, 96 h.
Data set [2] in a line: Inhibition of RNA polymerase II phosphorylation in human HeLa cells by Western blot analysis. The class given is cell-based.
The subject of the next data set is A2058. The data set can be described thus: Cytotoxicity against human A2058 cells assessed as inhibition of cell growth incubated for 96 hrs by CellTiter-Glo luminescent assay. Conditions: A2058, 96 h. The class given is functional, cell-based.
The test system of the next data set is BT-474. As to the kind of experiment: Antiproliferative activity against human BT-474 cells assessed as inhibition of cell growth incubated for 4 days by WST-8 assay. Conditions: BT-474, 96 h. Format: functional, cell-based.
A short description of data set [3]: Apparent permeability across basolateral to apical side in human Caco-2 cells incubated for 2 hrs by HPLC-MS analysis. The class given is ADME, cell-based.
For a further data set, the system named is SK-OV-3. The data set can be described thus: Cytotoxicity against human SK-OV-3 cells incubated for 96 hrs by PrestoBlue reagent based cell viability assay. Format: functional. Conditions: SK-OV-3, 96 h.
Another data set concerns CCRF-CEM. As to the kind of experiment: Cytotoxicity against human CCRF-CEM cells. The class given is functional, cell-based.
The target in the next data set is Tubulin. The data set can be described thus: Displacement of fluorescent Maytansine probe from tubulin (unknown origin) assessed as dissociation constant by competitive binding based fluorescence anisotropy. The class given is protein-complex assay, Homo sapiens.
Another data set concerns A2780. The data set can be described thus: Cytotoxicity against human A2780 cells assessed as inhibition of cell growth incubated for 72 hrs by MTT assay. Conditions: A2780, 72 h. Format: functional, cell-based.

Molecules are shown by their SMILES. ≈ marks a conversion by molar mass, not a printed value. Starred links: 1 amine or outer side, 2 acyl side, 3 side chain; linkers in the order of their positions; H or OH if unused. Non-standard residues stand in square brackets, D forms with d. Residues, ends and D or L forms follow the SMILES beside them. *: point of attachment. Dolaproine = CO[C@@H]([C@@H]1CCCN1)[C@@H](C)C(=O)O; X10 = CC(C)[C@@H](C(=O)[*:2])N(C)CCCCN(C)[*:1]; X1 = O=C([C@]1(N[*:1])C[C@@H]1c1ccccc1)[*:2]; Dil = CC[C@H](C)[C@H](NC)[C@@H](CC(=O)O)OC; X3 = CCOP(=O)(OCC)[C@@H](N[*:1])C(=O)[*:2]; NMe2Val = CC(C)[C@@H](C(=O)*)N(C)C; X8 = CCOP(=O)(O)[C@H](Cc1ccccc1)N*; NMeV = CN[C@H](C(=O)O)C(C)C; X5 = c1ccc(COC2CON(*)C2)cc1; X2 = c1ccc2c(c1)CON(*)C2; Boc = CC(C)(C)OC(=O)*; X4 = C1=CC2CCC1ON2*; NHOH = ON* A value given as a limit tells only on which side of the number the result lay.

In general, IC50 refers to the midpoint of a concentration-inhibition curve. What is called GI50 is the concentration giving 50% growth inhibition. A higher GI50 goes with less potent growth inhibition. The EC50 is the concentration giving half of the maximal effect. For orientation: Papp B→A means how fast a substance crosses the layer from the basolateral side. By Kd is commonly meant the equilibrium constant for the complex coming apart.

Take `CCOP(=O)(OCC)[C@@H](NC(=O)[C@H](C)[C@@H](OC)[C@@H]1CCCN1C(=O)C[C@@H](OC)[C@H]([C@@H](C)CC)N(C)C(=O)[C@@H](NC(=O)[C@@H](NC)C(C)C)C(C)C)C(=O)N1OC2C=CC1CC2` (stereo not given in full) (H-[NMeV]V[Dil][Dolaproine][X3]-X4): the half-maximal inhibitory concentration (IC50) with HT-29 and in the data set on 786-0 was 0.5 nM throughout.
In the data set with SK-BR-3, `CC[C@H](C)[C@@H]([C@@H](CC(=O)N1CCC[C@H]1[C@H](OC)[C@@H](C)C(=O)N[C@@H](CC(C)C)C(=O)NO)OC)N(C)C(=O)[C@@H](NC(=O)[C@H](C(C)C)N(C)C)C(C)C` (NMe2Val-V[Dil][Dolaproine]L-{NHOH}) registered a 50% growth inhibitory concentration (GI50) of 0.1 nM.
In the case of `O=C(/C=C/c1cccnc1)NCCCCC1CCN(C(=O)c2ccccc2)CC1` [DAPORINAD], the EC50 in data set [1] is 6.7 nM.
For `CC[C@H](C)[C@H](NC(=O)[C@H]1CCCCN1C)C(=O)N(COC(=O)CC(C)C)[C@H](C[C@@H](OC(C)=O)c1nc(C(=O)N[C@H](Cc2ccccc2)C[C@H](C)C(=O)O)cs1)C(C)C`, the IC50 with K562 was 0.02 ng/mL (≈ 0.0242 nM).
On to `CC[C@H](C)[C@@H]([C@@H](CC(=O)N1CCC[C@H]1[C@H](OC)[C@@H](C)C(=O)N[C@@H](Cc1ccccc1)C(=O)N1CC(OCc2ccccc2)CO1)OC)N(C)C(=O)[C@@H](NC(=O)[C@@H](NC)C(C)C)C(C)C` (stereo not given in full) (H-[NMeV]V[Dil][Dolaproine]F-X5), for which the IC50 with HT-29 and in the data set with 786-0 was 0.5 nM throughout.
As for `CN[C@H](C(=O)N[C@H](C(=O)N(C)[C@H](/C=C(\C)C(=O)N1CCC[C@H]1[C@H](OC)[C@@H](C)C(=O)N[C@@H](Cc1ccccc1)c1nccs1)C(C)C)C(C)(C)C)C(C)(C)c1ccccc1`, in the data set with KB 3-1, the IC50 was 0.75 nM.
Take `CCOP(=O)(O)[C@H](Cc1ccccc1)NC(=O)[C@H](C)[C@@H](OC)[C@@H]1CCCN1C(=O)C[C@@H](OC)[C@H]([C@@H](C)CC)N(C)C(=O)[C@@H](NC(=O)[C@@H](NC)C(C)C)C(C)C` (H-[NMeV]V[Dil][Dolaproine]-X8): in the data set with HCT-116, the 50% inhibitory concentration (IC50) stood at 0.09 nM.
In data set [2], `CC[C@H](C)[C@@H]1NC(=O)CNC(=O)[C@H]2CC(=O)[C@H]([C@@H](C)[C@@H](O)CO)NC(=O)[C@@H]3C[C@@H](C#N)CN3C(=O)[C@H](CC(N)=O)NC(=O)[C@H](CSc3[nH]c4cc(O)ccc4c3C2)NC(=O)CNC1=O` had an IC50 of 480 nM.
Take `Nc1cccc(C(=O)N2CCC(CCCCNC(=O)/C=C/c3cccnc3)CC2)c1`: in [1], the 50% effective concentration (EC50) worked out at 6.3 nM.
On to `CC[C@H](C)[C@@H]([C@@H](CC(=O)N1CCC[C@H]1[C@H](OC)[C@@H](C)C(=O)N[C@@H](Cc1ccccc1)C(=O)O)OC)N(C)C(=O)[C@@H](NC(=O)[C@H](C(C)C)N(C)CCCCN(C)C(=O)OC(C)(C)C)C(C)C` (Boc-[X10]V[Dil][Dolaproine]F-OH), for which the IC50 in the data set on A2058 came to 1 nM.
For `CC[C@H](C)[C@@H]([C@@H](CC(=O)N1C[C@@H](NC)C[C@H]1[C@H](OC)[C@@H](C)C(=O)NCCc1c(F)cccc1F)OC)N(C)C(=O)[C@@H](NC(=O)[C@H](C(C)C)N(C)C)C(C)C`, the concentration for half-maximal inhibition (IC50) with BT-474 is under 0.4 nM.
As for `CC[C@H](C)[C@@H]([C@@H](CC(=O)N1CCC[C@H]1[C@H](OC)[C@@H](C)C(=O)N[C@@H](Cc1ccccc1)c1nnc(-c2ccccc2)o1)OC)N(C)C(=O)[C@@H](NC(=O)[C@H](C(C)C)N(C)CCCC(=O)O)C(C)C`, the Papp B→A at 2 h in data set [3] is 2.9 ×10⁻⁶ cm/s.
In the data set with SK-OV-3, `CC[C@H](C)[C@@H]([C@@H](CC(=O)N1CCC[C@H]1[C@H](OC)[C@@H](C)C(=O)N[C@@H](Cc1ccccc1)c1nccs1)OC)N(C)C(=O)[C@@H](NC(=O)[C@H](C(C)C)N(C)CC(O)C(O)C(O)C(O)CN=[N+]=[N-])C(C)C` (stereo not given in full) displayed an IC50 of under 1 nM.
As for `CC[C@H](C)[C@@H]([C@@H](CC(=O)N1CCC[C@H]1[C@H](OC)[C@@H](C)C(=O)N[C@@]1(C(=O)N2Cc3ccccc3CO2)C[C@@H]1c1ccccc1)OC)N(C)C(=O)[C@@H](NC(=O)[C@@H](NC)C(C)C)C(C)C` (H-[NMeV]V[Dil][Dolaproine][X1]-X2), the IC50 in the data set with HT-29 and with 786-0 was 0.5 nM in each case.
Turning to `COc1ccc(C[C@H]2NC(=O)/C=C/C[C@@H]([C@H](C)[C@H]3O[C@@H]3c3ccc(F)cc3)OC(=O)[C@H](CC(C)C)OC(=O)C(C)(C)CNC2=O)cc1Cl`, in the data set on CCRF-CEM, 0.033 nM corresponded to half-maximal inhibition (IC50).
For `COc1cc2cc(c1Cl)N(C)C(=O)C[C@H](OC(=O)c1ccccc1)[C@@]1(C)O[C@H]1[C@H](C)[C@@H]1C[C@@](O)(NC(=O)O1)[C@H](OC)/C=C/C=C(\C)C2`, the dissociation constant (Kd) on Tubulin worked out at 51 nM. For the same compound, the IC50 with A2780 was 0.11 nM.

(Values after ChEMBL document CHEMBL5608211, “Antibody-drug conjugates for targeted cancer therapy: Recent advances in potential payloads” (Eur J Med Chem, 2024).)
